Measurements published in paper PMC2846816 (Arthritis and rheumatism, 2009).
Where a name gives a salt, the structure may show the parent alone. Read-outs that look alike come from different tables or passages of the source.

What was measured:
Experiment in all cases: Fura-2 Ca2+ influx
Assay type in all cases: cell-based
[1] = molecular target: T1, TRPV4 (Sus scrofa, UniProt B3VP30)
[2] = molecular target: T1, TRPV4; remark: listed apart in the source
[3] = molecular target: T1, TRPV4; remark: listed apart in the source

T1 sequence (B3VP30 1-871): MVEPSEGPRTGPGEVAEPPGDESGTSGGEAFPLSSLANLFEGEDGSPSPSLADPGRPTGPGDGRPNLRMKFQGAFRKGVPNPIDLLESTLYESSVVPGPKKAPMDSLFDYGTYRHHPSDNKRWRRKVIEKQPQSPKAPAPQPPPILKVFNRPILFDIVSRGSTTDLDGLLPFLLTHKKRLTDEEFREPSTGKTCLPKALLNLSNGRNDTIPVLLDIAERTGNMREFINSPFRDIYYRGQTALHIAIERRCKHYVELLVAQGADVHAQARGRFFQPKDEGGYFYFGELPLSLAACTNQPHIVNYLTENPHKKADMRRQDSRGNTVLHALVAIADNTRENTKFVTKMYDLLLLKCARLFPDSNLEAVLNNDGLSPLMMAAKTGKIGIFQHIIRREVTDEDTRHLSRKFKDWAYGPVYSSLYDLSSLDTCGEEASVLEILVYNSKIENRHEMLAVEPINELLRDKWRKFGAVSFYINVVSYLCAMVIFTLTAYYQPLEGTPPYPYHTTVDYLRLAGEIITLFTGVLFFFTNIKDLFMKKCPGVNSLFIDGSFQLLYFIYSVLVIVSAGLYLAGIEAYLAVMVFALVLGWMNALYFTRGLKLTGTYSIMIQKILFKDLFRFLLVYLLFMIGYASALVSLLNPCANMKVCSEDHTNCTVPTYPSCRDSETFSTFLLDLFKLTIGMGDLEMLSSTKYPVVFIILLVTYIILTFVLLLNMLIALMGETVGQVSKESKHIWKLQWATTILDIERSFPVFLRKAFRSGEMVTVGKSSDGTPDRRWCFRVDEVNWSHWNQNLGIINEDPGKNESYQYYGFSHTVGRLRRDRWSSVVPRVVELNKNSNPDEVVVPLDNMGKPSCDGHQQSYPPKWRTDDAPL

CCCCCCCCCC(=O)O[C@@H]1[C@@H](C)[C@@]2(O)[C@@H](C=C(CO)C[C@@]3(O)C(=O)C(C)=C[C@@H]23)[C@@H]2C(C)(C)[C@]12OC(=O)CCCCCCCCC [4αPDD]
EC50 [1]: ~2000 nM

CN(CCc1ccc(Nc2ncc(-c3cccnc3)s2)cc1)Cc1ccccc1 [GSK205, N-(4-{2 [methyl(phenylmethyl)amino]ethyl}phenyl)-5-(3-pyridinyl)-1,3-thiazol-2-amine hydrobromide]
IC50 [2]: ~600 nM

Cl.Cl.Cl.Cl.Cl.Cl.N.N.N.N.N.N.N.N.N.N.N.N.N.N.[O-2].[O-2].[Ru+3].[Ru+3].[Ru+4] [Ruthenium Red]
IC50 [3]: ~5 nM
